Results as given in patent publication US20040192738A1, “2-(Butyl-1-sulfonylamino)-N-[1(R)-(6-methoxypyridin-3-yl)propyl] benzamide, its use as a medicament, and pharmaceutical preparations comprising it” (Aventis Pharma Deutschland GmbH, priority 2003, published 2004).
Where “and” joins values, the source holds several entries; their conditions need not be identical. Equal entries are not always repeated.

Columns and labels:
[1] = tested on: left atrium of the anesthetized pig; test: Refractory period and left-atrial vulnerability in the anesthetized pig; format: in vivo; details: for % inhibition of the arrhythmias: arrhythmias induced by premature extra-stimulus (S2) in the left atrium, 3 mg/kg; for % inhibition of the arrhythmias / % increase in the refractory period: mean value; for % increase in the refractory period: left atrium, 10 minutes after injection, mean of three rates (150, 200 and 250/min); for antiarrhythmic action: model on the anesthetized pig
Experimental: Investigation of the Refractory Period and the Left-Atrial Vulnerability in the Pig
In the course of this, the refractory period of the left atrium was determined and the antiarrhythmic activity was recorded as described in the literature (Knobloch et al. 2002. Naunyn-Schmiedberg's Arch. Pharmacol. 366; 482-487). The anti-arrhythmic action relates here to the inhibition of the occurrence of episodes of arrhythmias which are induced by a prematurely placed extra-stimulus (S2) in the left atrium (=left-atrial vulnerability).
The refractory period values are stated in percent of the basal values 10 minutes after injection. Mean values for the refractory periods are shown from three rates (150, 200 and 250/min).
By repeated measurement after substance administration, the duration of action of a substance on the refractory period can be determined in this experimental procedure. The R enantiomer was infused intravenously over the course of 100 minutes in a dose of 1 mg/kg and the pharmacological action was determined over the course of 280 minutes.

[2] = Effect on QTc interval and inotropic or hemodynamic side effects; details: in vivo
[3] = anesthetized pig, bolus 3 mg/kg

CCCCS(=O)(=O)Nc1ccccc1C(=O)N[C@@H](CC)c1ccc(OC)nc1 [S enantiomer, 2-(butyl-1-sulfonylamino)-N-[1(S)-(6-methoxypyridin-3-yl)propyl]benzamide]
% inhibition of the arrhythmias [1, 3]: 27% and 27.3% | % increase in the refractory period [1, 3]: 8.8% | antiarrhythmic action ([1]; result in words): more weakly active

CCCCS(=O)(=O)Nc1ccccc1C(=O)N[C@H](CC)c1ccc(OC)nc1 [formula I, 2-(butyl-1-sulfonylamino)-N-[1(R)-(6-methoxypyridin-3-yl)propyl]benzamide]
effect on the QTc interval [2]: no effect | negative inotropic or hemodynamic side effects [2]: no negative inotropic or hemodynamic side effects | melting point: 97 °C | duration of action on the left-atrial refractory period after ending the infusion ([1]; anesthetized pig, 1 mg/kg intravenous infusion over 100 minutes, observed over 280 minutes, FIG. 1): ≥ 180 min | % inhibition of the arrhythmias ([1]; anesthetized pig, bolus 3 mg/kg, listed as R enantiomer): 73.9% | prolongation of the refractory period (comparison of enantiomers) ([1]; anesthetized pig, bolus 3 mg/kg, result in words): markedly greater prolongation of the refractory period than the S enantiomer | % increase in the refractory period [1, 3]: 19% | antiarrhythmic action ([1]; result in words): excellent
